Experimental data from patent US10683292B2, “Purine and 3-deazapurine analogues as choline kinase inhibitors” (NERVIANO MEDICAL SCIENCES S.R.L., priority 2016, dated 2020).

Assays:
Δ49N-hChoKα = biological target: T1, Δ49N-hChoKα (Homo sapiens, UniProt P35790); test: Biochemical kinase inhibition assay (Kinase-Glo Luminescent Kinase Assay) on Δ49N-hChoKα; details: ATP 5 μM, choline 5 μM, 60 minutes at rt; read-out: IC50 ChoKα
T1 construct: cDNA fragment 362-1534, corresponding to aminoacids 50-457; GST (N, cleaved yes); Prescission Protease recognition site (N, cleaved yes); made in house; host or cells: Escherichia coli BL21pLysS (DE3)
Procedure: The biochemical activity of compounds against Δ49N-ChoKα and ChoKβ FL were determined using the Kinase-Glo™ Luminescent Kinase Assay (Promega cat. V6711).
Compounds were 3-fold serially diluted from 10 to 0.0005 μM, then incubated for 60 minutes at rt in the presence of ATP 5 μM, choline (5 μM for ChoKα and 20 μM for ChoKβ) and enzyme in a final volume of 19 μL of kinase buffer (50 mM Hepes pH 7.5, 10 mM MgCl2, 1 mM DTT, 3 μM Na3VO4 and 0.2 mg/mL BSA). The final concentration of DMSO was 1%.
At the end of the incubation, an amount of 19 μL of KinaseGlo Reagent was added to each well to stop the reaction and after 30 minutes the luminescence signal was measured using ViewLux reader (Perkin Elmer).
The data per each molecule are analyzed by an internally customized version of the SW package “Assay Explorer” which provides sigmoidal fittings of the ten-dilution curves for IC50 determination using a 4 parameter logistic equation: y=bottom+(top−bottom)/(1+10^((log IC50−x)*slope)) where x is the logarithm of the inhibitor concentration, y is the response; y starts at bottom and goes to top with a sigmoid shape.

hChoKβ FL = biological target: T2, hChoKβ FL (Homo sapiens, UniProt Q9Y259); test: Biochemical kinase inhibition assay (Kinase-Glo Luminescent Kinase Assay) on hChoKβ FL; details: ATP 5 μM, choline 20 μM, 60 minutes at rt; read-out: IC50 ChoKβ
T2 construct: hChoKβ full length (FL), corresponding to aminoacids 2-395; GST (N, cleaved yes); Prescission Protease recognition site (N, cleaved yes); made in house; host or cells: Escherichia coli BL21pLysS (DE3)

[1] = test system: MDA-MB-468 breast cancer cell line; test: Phosphocholine determination in cell medium culture (cell supernatants); format: cell-based; details: compound 2 μM
Procedure: For the determination of phosphocholine in cells, extracts were prepared according to ref. Cancer Res., 2005, 65, 9369-9376 with some modifications. MDA-MB-468 breast cancer cell line was plated at 1×10^6 cells in 10 cm petri dish culture in RPMI, 10% FCS culture medium. After 24 h, fresh medium and a compound of general formula (I) were added for further 24 h. At the end of the treatment, the cells were trypsinised, counted and the diameter was determined using a Coulter Counter (Multisizer 3, Beckman). Cells were washed twice with ice-cold physiologic saline solution and 2×10^6 cells resuspended in 0.3 mL ice-cold twice-distilled water. […]
Phosphocholine concentration levels were assessed in the supernatants using an Ultra High Pressure Liquid Chromatography system (UPLC®, Waters) coupled with a triple quadrupoles mass spectrometer (TQD, Waters) operating in single reaction monitoring mode (SRM). […] The monitored transitions were m/z 184.00 to 85.7 (collision energy 24 eV) for phosphocholine and m/z 103.0 to 57.5 (collision energy 13 eV) for DMG. […]
For the determination of phosphocholine in cell medium culture, cell culture supernatants (500 μL) were denatured by adding 100 μL of trichloroacetic acid (TCA) 1M containing dimethyl glicine (DMG) (100 μM), used as internal standard. […] The supernatants were subsequently analyzed for phosphocholine determination.

[2] = test system: MDA-MB-468 breast cancer cell line; test: Phosphocholine determination assay (mechanism of action in cells), cell extracts; format: cell-based; details: 24 h
Procedure: Phosphocholine Determination Assay (Mechanism of Action in Cells)
After 24 h, fresh medium and a compound of general formula (I) were added for further 24 h. At the end of the treatment, the cells were trypsinised, counted and the diameter was determined using a Coulter Counter (Multisizer 3, Beckman). […] Then, 0.7 mL ice-cold absolut EtOH were added (final ratio EtOH/H2O 70:30, v/v). After 24 h at −20° C. the samples were sonicated and centrifuged at 14,000×g for 30 minutes.
Phosphocholine concentration levels were assessed in the supernatants using an Ultra High Pressure Liquid Chromatography system (UPLC®, Waters) coupled with a triple quadrupoles mass spectrometer (TQD, Waters) operating in single reaction monitoring mode (SRM). Analyses were performed using Acquity HSS T3 column 2.1×50 mm column, 1.8 μm particle size. […] Waters TQD triple quad mass spectrometer was equipped with an electrospray ion source operating in the positive mode. Source parameters were set as follows: desolvation gas flow 1000 L/h, cone gas flow 50 L/h; collision gas flow 0.2 mL/min; source temperature 130° C.; desolvation temperature 450° C. Dimethyl glicine (DMG) was added to samples as internal standard at 100 μM final concentration. […] The concentration of PCho in the sample was normalized to the total volume of cells (number cells×volume of single cell considered like a sphere).

T1 sequence (P35790 50-457, stated change not applied): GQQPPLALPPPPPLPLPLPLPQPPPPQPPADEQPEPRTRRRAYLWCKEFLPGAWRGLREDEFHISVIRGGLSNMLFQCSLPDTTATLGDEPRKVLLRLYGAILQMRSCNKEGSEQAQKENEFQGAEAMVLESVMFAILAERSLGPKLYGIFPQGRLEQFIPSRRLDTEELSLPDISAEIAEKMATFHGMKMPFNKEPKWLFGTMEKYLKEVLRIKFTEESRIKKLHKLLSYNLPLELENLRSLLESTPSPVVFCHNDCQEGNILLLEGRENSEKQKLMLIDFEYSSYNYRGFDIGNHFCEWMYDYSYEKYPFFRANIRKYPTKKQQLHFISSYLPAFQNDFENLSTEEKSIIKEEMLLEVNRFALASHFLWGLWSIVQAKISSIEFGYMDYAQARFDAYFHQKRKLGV
T2 sequence (Q9Y259 2-395): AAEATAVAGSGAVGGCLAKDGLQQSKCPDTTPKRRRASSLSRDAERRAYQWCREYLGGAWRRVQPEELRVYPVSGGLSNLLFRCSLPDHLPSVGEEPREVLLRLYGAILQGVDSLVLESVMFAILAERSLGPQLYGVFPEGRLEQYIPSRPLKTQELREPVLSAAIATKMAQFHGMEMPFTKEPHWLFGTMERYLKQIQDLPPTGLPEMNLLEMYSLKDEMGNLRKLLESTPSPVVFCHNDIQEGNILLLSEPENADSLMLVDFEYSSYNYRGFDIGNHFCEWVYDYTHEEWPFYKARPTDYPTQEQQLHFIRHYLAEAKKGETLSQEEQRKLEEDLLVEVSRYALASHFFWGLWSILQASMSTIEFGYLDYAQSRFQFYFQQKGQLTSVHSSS

IC50 (Δ49N-hChoKα): 34 nM
IC50 (hChoKβ FL): 4.69 µM
Structure (SMILES): Nc1nc(Cl)nc2c1ncn2[C@H]1CC[C@@H](C(=O)Nc2ncc(Cl)s2)CC1 [cpd 114, cis-4-(6-amino-2-chloro-9H-purin-9-yl)-N-(5-chloro-1,3-thiazol-2-yl)cyclohexanecarboxamide]
inhibition at 2 µM ([1]; Homo sapiens, MDA-MB-468, vs untreated control): 66%
[Phosphocholine] in MDA-MB-468 cell supernatants [1]: 2.50 µM
inhibition at 0.4 µM ([2]; Homo sapiens, MDA-MB-468, compound 0.4 μM, vs untreated control): 37%
inhibition at 2 µM ([2]; Homo sapiens, MDA-MB-468, compound 2 μM, vs untreated control): 76%
[Phosphocholine] in MDA-MB-468 cell extracts ([2]; compound 0.4 μM): 5.21 mM
[Phosphocholine] in MDA-MB-468 cell extracts ([2]; compound 2 μM): 1.98 mM
